Measured values published in paper PMC12035805, “A Water-Soluble Aggregation-Induced Emission Photosensitizer with Intrinsic Antibacterial Activity as an Antiplanktonic and Antibiofilm Therapeutic Agent” (Journal of Medicinal Chemistry, 2025).

Columns and labels:
[1] = Cytotoxicity (MTT) assay against HFF-1 cells; assay type: cell-based; conditions: human, no irradiation, read-out: 50% cytotoxicity concentration (CC50) against HFF-1 cells
Procedure: The cytotoxicity of TPA-1, TPA-0, and TPA-NC-1 against HFF-1 cells was evaluated using the 3-(4,5-dimethylthiazol-2-yl)-2,5-diphenyltetrazolium bromide (MTT) assay kit from ThermoFisher Scientific. In general, HFF-1 cells (MEM, 10% FBS, and 1% penicillin-streptomycin) were seeded in a 96-well plate with a density of 3000 cells/well overnight at 37 °C with 5% CO2. Then, the cells were treated with different concentrations of compounds for 24 h. MTT (10 μL, 5 mg/mL) was added to the medium, and the cells were further incubated for 3 h. The medium was then replaced by DMSO (100 μL). After gently shaking the plate for 30 s, the optical density of the solutions at 570 nm was measured by a BMG Labtech CLARIOstar microplate reader. The cell viability was calculated as (ODcompound – ODDMSO)/(ODmedium - ODDMSO) × 100% where ODcompound, ODmedium, and ODDMSO are the optical densities of the treated cell, nontreated cells, and DMSO at 570 nm, respectively. The experiment was conducted in triplicate. The CC50 values were calculated using GraphPad Prism 8.

S. aureus = test: Resistance development assay on S. aureus; assay type: cell-based, Staphylococcus aureus
Procedure: The MICs for TPA-1 and norfloxacin against S. aureus were first determined by the above-mentioned method. The wells with 0.5 × MIC of compounds were transferred to 1 mL fresh MHB and incubated under darkness for 3–4 h at 37 °C. The bacteria were then used to conduct a MIC assay again. The experiments were repeated for 20 days. The fold changes in the MIC values of the compounds were recorded. The experiments were performed in duplicate.

[2] = system: S. aureus biofilm formation; test: S. aureus biofilm inhibition assay in the dark (crystal violet); assay type: cell-based; conditions: Staphylococcus aureus, light or radiation study, without light irradiation
Procedure: For biofilm inhibition assay, overnight culture of S. aureus in TSB was diluted to 1 × 10^7 CFU/mL in TSB (with 1% glucose). Ten μL of the diluted bacteria were added to a 96-well plate containing 90 μL of serial diluted TPA-1 in TSB (with 1% glucose). After overnight incubation at 37 °C in darkness, the medium in the well was removed. The remaining biofilm was washed with 200 μL of PBS (3 times) and fixed with 100 μL of methanol for 10 min. The well was left for drying. Then, 150 μL of 0.1% crystal violet was added to the wells and stained for 10 min. The crystal violet was removed, and the wells were washed with 200 μL of PBS (3 times). After drying, the remaining crystal violet was dissolved in 100 μL of 95% ethanol with gentle shaking, and the absorbance at 570 nm was recorded. The biofilm inhibition % was calculated as [1 – (ODTPA-1 – ODblank)/(ODmedium – ODblank)] × 100% where ODTPA-1, ODmedium and ODblank were the absorbances of the wells with bacteria treated TPA-1, with bacteria without treatment and with medium only, respectively. The experiment was performed in triplicate.

planktonic S. aureus = test: Photodynamic eradication of planktonic bacteria; assay type: cell-based, Staphylococcus aureus; conditions: 2 μM, 600 nm (60 mW/cm^2)
Procedure: (§1) For planktonic bacteria, an overnight culture of S. aureus or P. aeruginosa was diluted 100 times in TSB and grown to OD = 1. The bacteria cultures were then diluted to […] in PBS. TPA-1 (2 μM) was added to the diluted cultures and incubated under darkness for 20 min at 30 °C. Bacterial cultures of 200 μL were transferred to the wells of a 96-well plate. The plate was irradiated by 600 nm light (60 mW/cm^2) for 30 and 45 min. Then, the bacterial cultures were serially diluted, and the number of viable bacteria was counted using the plate counting method.

planktonic P. aeruginosa = test: Photodynamic eradication of planktonic bacteria; assay type: cell-based, Pseudomonas aeruginosa; conditions: 2 μM, 600 nm (60 mW/cm^2)
Procedure: as §1

MRSA (ATCC 43300) = test: Wound infection mouse model, MRSA biofilm; assay type: in vivo; conditions: mice, topical 90 μM, 600 nm 15 min, every 24 h for 4 days (TPA-1 + L)
Procedure: (§2) All in vivo experiments were approved by the Department of Science and Technology of Zhejiang Province (SYXK(Zhejiang)2021-0043). Female BALB/c mice (10–12 weeks old) were kept in 12 h light and 12 h dark cycle with access to free food and water for 7 days before and throughout the experiment. The backs of the mice were shaved and disinfected with iodine. A full-thickness circular wound (7 mm in diameter) was then created at the back of the mice. The mice were allowed to recover for 24 h after surgery to prevent sepsis.[65] Ten μL of 1× 10^8 CFU/mL MRSA (ATCC 43300) or P. aeruginosa (ATCC 27853) in saline was added to the wound. The wound was covered with an adhesive dressing for 24 h of infection. Next, the mice were randomly divided into four groups: (1) 50 μL TPA-1 (90 μM) with 600 nm light irradiation (60 mW/cm^2) for 15 min, (2) 50 μL TPA-1 (90 μM) in dark, (3) 50 μL saline with 600 nm light irradiation (60 mW/cm^2) for 15 min, and (4) 50 μL saline in dark. For light irradiation groups, TPA-1 and saline were incubated on the wound for 10 min before irradiation. The treatment was sustained for 4 days. The wound size and body weight of the mice were recorded every day. On day 6, the mice were euthanatized, and the wound tissue was collected. […] The other half of the tissue was homogenized, and the number of viable bacteria was measured by the plate counting method.

[3] = system: P. aeruginosa (ATCC 27853); test: Wound infection mouse model, P. aeruginosa biofilm; assay type: in vivo; conditions: mice, topical 90 μM, 600 nm 15 min, every 24 h for 4 days (TPA-1 + L)
Procedure: as §2

Structure (SMILES): C#CCC[n+]1c(/C=C/c2ccc(-c3ccc(N(c4ccc(OCCC[N+](C)(C)C)cc4)c4ccc(OCCC[N+](C)(C)C)cc4)cc3)s2)sc2ccccc21.[Br-].[Br-].[Br-] [TPA-1]
- CC50 at 24 h [1]: 260 ± 40 µM
- increase of MIC against S. aureus after treatment for 20 days (S. aureus; 20 days of passages at 0.5 × MIC): 2 fold
- MIC (S. aureus; Staphylococcus aureus, read-out: initial MIC against S. aureus in resistance development assay): 3.12 µM
- inhibition at 3.125 µM ([2]; 1 × MIC (3.125 μM)): > 90%
- inhibition at 6.25 µM ([2]; ≥ 6.25 μM): > 99.9%
- planktonic S. aureus eradicated (planktonic S. aureus; 30 min): 99.2% ± 0.7%
- planktonic S. aureus log CFU/mL reduction (planktonic S. aureus; 30 min): 2.2 ± 0.4 log CFU/mL
- planktonic S. aureus eradicated (planktonic S. aureus; 45 min): > 99.99%
- planktonic S. aureus log CFU/mL reduction (planktonic S. aureus; 45 min): > 5 log CFU/mL
- planktonic P. aeruginosa eradicated (planktonic P. aeruginosa; 30 min): 99.96% ± 0.03%
- planktonic P. aeruginosa log CFU/mL reduction (planktonic P. aeruginosa; 30 min): 3.4 ± 0.2 log CFU/mL
- planktonic P. aeruginosa eradicated (planktonic P. aeruginosa; 45 min): > 99.99%
- planktonic P. aeruginosa log CFU/mL reduction (planktonic P. aeruginosa; 45 min): > 5 log CFU/mL
- MRSA eradicated in infected tissues (MRSA (ATCC 43300)): 96% ± 3%
- MRSA log (CFU/mg tissue) reduction (MRSA (ATCC 43300)): 1.4 ± 0.6 log (CFU/mg tissue)
- P. aeruginosa eradicated in infected tissues [3]: 96% ± 4%
- P. aeruginosa log (CFU/mg tissue) reduction [3]: 1.4 ± 0.4 log (CFU/mg tissue)
